Data reported in US7915050B2, “Regulatory genes for plant differentiation and growth, and use of the same” (National University Corporation Nagoya University, priority 2005, dated 2011).

Molecular target: T1, GID1 (Oryza sativa subsp. japonica, UniProt Q6L545)
T1 construct: GST (tag of vector pGEX-4T) (N); made in house
Assay: Saturation/Scatchard and association/dissociation analysis of GA binding to recombinant GID1
Set-up: species or system rice
Settings: Scatchard plot analysis
Method: Panel a) depicts the saturability for the GA binding of GID1. […] Bar represents the standard deviation (n=3). Panel b) depicts the results of a Scatchard plot for the data of binding shown in a. The Kd value was calculated (correlation coefficient R^2=0.96) from t three independent experimental results. Panel c) depicts the ^3H-GA association/dissociation rate to GID1. […] Bar represents the standard deviation (n=3). […] Upper panel, none of three recombinant proteins of mutant GID1s (GID1-1, 1-2, and 1-3) corresponding to the three gid1 alleles interacted with GA4. […] Bar represents the standard deviation (n=3). Bottom panel, Coomassie brilliant blue stain of the recombinant proteins used in this experiment. Dot represents GID or tag proteins in the SDS-PAGE profile. In this experiment, almost equal amounts of proteins were used for each (80 pmol). Panel e) depicts the gross morphologies of a GID1-overexpressing plant (Actin1 promoter-GID1, right) and wild type plant (control, left) three months after seeding. Bar=50 cm. f) dose-dependent GA response in the elongation of the second leaf sheath of GID1overexpressing plant (closed triangle) and wild type (closed circle). Bar represents the standard deviation (n=5).
In the gibberellin-binding assay, [1,2,16,17-^3H4]16,17-dihydro-GA4 was used as a labeled GA4. In vitro GA-binding assays were carried out using previous methods with some modifications (Nakajima, M. et al., Biochem. Biophys. Res. Comm. 241, 782-786 (1997)). […] The eluate of the binding buffer (0.6 ml) was discarded, the subsequent eluate (0.2 ml) was collected, and the radioactivity was measured. The specific binding activity, reflecting the number of displaceable GA binding sites, was calculated by subtracting the amount of nonspecific binding from the amount of total binding. […]
Next, the kinetics of the binding of GID1 to GA was analyzed. To calculate the Kd value of GID1 to GA, the saturability of GA binding was measured using various concentrations of GA4 derivative (FIG. 4a). […]

T1 sequence (Q6L545 whole entry): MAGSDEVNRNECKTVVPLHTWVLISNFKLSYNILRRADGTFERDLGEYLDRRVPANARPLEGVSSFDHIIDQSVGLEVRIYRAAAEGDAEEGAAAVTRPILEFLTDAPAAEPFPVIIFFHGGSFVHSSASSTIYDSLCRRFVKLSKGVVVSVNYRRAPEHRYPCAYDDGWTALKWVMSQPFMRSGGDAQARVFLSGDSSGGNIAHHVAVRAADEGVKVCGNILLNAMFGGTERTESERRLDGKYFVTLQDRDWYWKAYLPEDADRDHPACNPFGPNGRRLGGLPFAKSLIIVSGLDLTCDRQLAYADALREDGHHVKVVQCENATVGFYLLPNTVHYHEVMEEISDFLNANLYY

With `CC1C[C@]23C[C@H]1CCC2[C@]12CC[C@H](O)[C@](C)(C(=O)O1)[C@H]2[C@@H]3C(=O)O` (stereo partly shown) [H2-GA4, 16,17-dihydro-GA4] the Kd was 1400 nM.
